ChEMBL document CHEMBL1201862, “PubChem BioAssay data set” (2004)
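Exposure lasted 48 hours, with cells grown in 96-well plates and compounds tested at five concentrations. Here, GI50 denotes the concentration required for 50% inhibition of growth.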 Activity calls are given as the source filed them. Rule as the data show it: active = GI50 up to about 1.1 µM and inactive = higher.

Experiments:
Experiment in all cases: NCI-60 cell line screen, 48 h
SF-539 = test system: SF-539
NCI-H460 = test system: NCI-H460
A549 = test system: A549
HOP-92 = test system: HOP-92
U-251 = test system: U-251
SNB-19 = test system: SNB-19
OVCAR-8 = test system: OVCAR-8
HOP-62 = test system: HOP-62
IGROV-1 = test system: IGROV-1
SK-MEL-2 = test system: SK-MEL-2
SF-295 = test system: SF-295
M14 = test system: M14
TK-10 = test system: TK-10
RPMI-8226 = test system: RPMI-8226
SR = test system: SR
NCI-H23 = test system: NCI-H23
OVCAR-3 = test system: OVCAR-3

Measured: GI50

COc1ccc([C@H]2CC(=O)NCCCCN2)cc1
inactive: SF-539 > 100 µM | NCI-H460 > 100 µM | A549 > 100 µM | HOP-92 57.1 µM | U-251 > 100 µM | SNB-19 > 100 µM | OVCAR-8 > 100 µM | HOP-62 > 100 µM | IGROV-1 > 100 µM | SK-MEL-2 > 100 µM | SF-295 > 100 µM | M14 > 100 µM | TK-10 > 100 µM | RPMI-8226 > 100 µM | SR > 100 µM | NCI-H23 > 100 µM

CC(C)[C@H]1CO[C@@H]2O[C@H](C)CC(=O)N21
inactive: SF-539 > 100 µM | OVCAR-3 > 100 µM | NCI-H460 > 100 µM | A549 > 100 µM | HOP-92 > 100 µM | U-251 > 100 µM | SNB-19 > 100 µM | OVCAR-8 > 100 µM | HOP-62 > 100 µM | IGROV-1 > 100 µM | SK-MEL-2 > 100 µM | SF-295 > 100 µM | M14 > 100 µM | TK-10 > 100 µM | RPMI-8226 > 100 µM | SR > 100 µM | NCI-H23 > 100 µM

O=C(N/C(=C\c1ccc(Oc2ccc(Cl)c(Cl)c2)cc1)c1nc2ccccc2[nH]1)c1ccccc1
inactive: SF-539 18 µM | OVCAR-3 17.3 µM | A549 17.9 µM | HOP-92 10.4 µM | U-251 14.1 µM | SNB-19 15.6 µM | OVCAR-8 14.6 µM | IGROV-1 > 10 µM | SK-MEL-2 19.2 µM | SF-295 15.1 µM | M14 19.5 µM | TK-10 26.1 µM | SR 25.6 µM | NCI-H23 13.3 µM

CCN(CC)CCn1c2ccccc2c(=O)c2c(OC)ccc(OC)c21
inactive: SF-539 39.1 µM | OVCAR-3 > 100 µM | NCI-H460 41.9 µM | A549 63.7 µM | HOP-92 > 94.2 µM | U-251 65.6 µM | SNB-19 > 100 µM | OVCAR-8 48.4 µM | HOP-62 > 100 µM | IGROV-1 > 10 µM | SK-MEL-2 > 100 µM | SF-295 61.2 µM | M14 > 100 µM | RPMI-8226 92.3 µM | SR 32.2 µM | NCI-H23 > 100 µM

CCCCCCCCCCCCn1[nH]c(C)c(C(=S)SCCCCCCCC)c1=O
inactive: SF-539 73.8 µM | OVCAR-3 34.8 µM | NCI-H460 61.4 µM | A549 69.5 µM | HOP-92 > 100 µM | U-251 45 µM | SNB-19 > 82.8 µM | OVCAR-8 30.7 µM | HOP-62 50.1 µM | IGROV-1 > 91.6 µM | SK-MEL-2 > 100 µM | SF-295 > 63 µM | M14 56.1 µM | TK-10 64.6 µM | NCI-H23 73.3 µM

Cc1csc(CCC(N)C(=O)O)n1 (configuration not stated)
inactive: SF-539 > 100 µM | OVCAR-3 > 100 µM | NCI-H460 > 100 µM | A549 > 100 µM | HOP-92 > 100 µM | U-251 > 100 µM | OVCAR-8 > 100 µM | IGROV-1 > 100 µM | SF-295 > 100 µM | M14 > 100 µM | TK-10 > 100 µM | RPMI-8226 > 100 µM | NCI-H23 > 100 µM

CCC(CC)n1c(C)nc2c1C(=O)c1ccccc1C2=O
inactive: SF-539 34 µM | OVCAR-3 26 µM | NCI-H460 20.7 µM | A549 35.3 µM | HOP-92 22.5 µM | U-251 36.5 µM | SNB-19 71.1 µM | OVCAR-8 40.5 µM | HOP-62 33.4 µM | IGROV-1 71.9 µM | SK-MEL-2 27.6 µM | SF-295 39.4 µM | M14 63.1 µM | TK-10 35.9 µM | SR 25.8 µM | NCI-H23 21.5 µM

CC1COS(=O)O1 (configuration not stated)
inactive: SF-539 > 100 µM | OVCAR-3 > 100 µM | NCI-H460 > 100 µM | A549 > 100 µM | HOP-92 > 100 µM | SNB-19 > 100 µM | OVCAR-8 > 100 µM | HOP-62 > 100 µM | IGROV-1 > 100 µM | SK-MEL-2 > 100 µM | SF-295 > 100 µM | M14 > 100 µM | TK-10 > 100 µM | RPMI-8226 > 100 µM | SR > 100 µM | NCI-H23 > 100 µM

COC(=O)C(C(=O)C(=O)Nc1nc2ccc([N+](=O)[O-])cc2s1)c1nc2ccc(Cl)cc2nc1O (configuration not stated)
inactive: SF-539 > 100 µM | OVCAR-3 > 100 µM | NCI-H460 > 100 µM | A549 > 100 µM | U-251 94.8 µM | SNB-19 > 100 µM | OVCAR-8 > 100 µM | HOP-62 > 100 µM | IGROV-1 > 100 µM | SK-MEL-2 > 100 µM | SF-295 > 100 µM | M14 > 100 µM | TK-10 > 100 µM | RPMI-8226 > 100 µM | SR > 100 µM | NCI-H23 > 100 µM

O=C(/C=C/c1ccc(Cl)c(Cl)c1)c1cccc2ccccc12
inactive: SF-539 2.96 µM | OVCAR-3 6.32 µM | NCI-H460 5.81 µM | A549 15.7 µM | HOP-92 16.8 µM | U-251 2.74 µM | SNB-19 6.85 µM | OVCAR-8 2.16 µM | HOP-62 17 µM | IGROV-1 11.7 µM | SF-295 11.4 µM | M14 17.1 µM | TK-10 16.8 µM | RPMI-8226 2.29 µM | NCI-H23 8.17 µM

N#C/C(=C\c1ccc2ccccc2c1)c1ccccc1
inactive: SF-539 17.3 µM | OVCAR-3 13 µM | NCI-H460 17.1 µM | HOP-92 65.9 µM | U-251 23 µM | OVCAR-8 32.4 µM | HOP-62 26.6 µM | IGROV-1 14.9 µM | SK-MEL-2 25.8 µM | SF-295 20.2 µM | M14 19.5 µM | TK-10 34.3 µM | RPMI-8226 53.1 µM | SR 46.8 µM | NCI-H23 > 100 µM

Cc1ccc(/N=N/c2ccc(N(CCC#N)CCC#N)cc2C)c(Br)c1
inactive: SF-539 14.4 µM | OVCAR-3 32.6 µM | A549 21.5 µM | U-251 19.1 µM | SNB-19 32.4 µM | OVCAR-8 49.3 µM | HOP-62 16.6 µM | IGROV-1 37.4 µM | SK-MEL-2 16.9 µM | SF-295 18.7 µM | M14 20.5 µM | TK-10 16.7 µM | RPMI-8226 4.33 µM | NCI-H23 21.3 µM

Cc1ccc(NC(=O)CCC(CC(=O)C(C)(C)C)=NNC(=O)C(=O)NN)cc1C
inactive: SF-539 > 100 µM | OVCAR-3 > 100 µM | NCI-H460 > 100 µM | A549 > 100 µM | SNB-19 > 100 µM | OVCAR-8 > 100 µM | HOP-62 > 100 µM | IGROV-1 > 100 µM | SK-MEL-2 > 100 µM | SF-295 > 100 µM | M14 > 100 µM | TK-10 > 100 µM | RPMI-8226 > 100 µM | NCI-H23 > 100 µM
